Reference: PMC6600665, “Identification and Characterization of Approved Drugs and Drug-Like Compounds as Covalent Escherichia coli ClpP Inhibitors” (International Journal of Molecular Sciences, 2019)
pIC50: −log10 of the molar value. Several values for one entry are separate records, joined by “and”; a condition that tells them apart may be missing. Identical values can stand only once. Like-named read-outs stand apart in the source and are kept apart here.

How the values were obtained:
E. coli ClpP [1] = target: T1, E. coli ClpP (Escherichia coli, UniProt P0A6G7); assay: Fluorescence-based E. coli ClpP proteolytic activity assay (Suc-LY-AMC), primary screen and dose-response; format: biochemical; details: for E. coli ClpP inhibition [%] in the primary screen: 200 µM
T1 construct: His-tag; made in house; host or cells: E. coli SG1146a
Protocol: Briefly, 25 ng/μL of E. coli ClpP dissolved in a buffer containing 100 mM NaCl, 100 mM 4-(2-hydroxyethyl)-1-piperazineethanesulfonic acid (HEPES) pH 7.5, and 0.05% Brij® 35 were transferred into each well. Test compound addition (final concentration 200 µM) was carried out using an Echo® 550 liquid handling system (Labcyte, Sunnyvale, CA, USA). […] Changes in fluorescence (excitation 350 nm, emission 435 nm) were monitored at 1 min intervals at 30 °C over 1 h using an Infinite M1000 microplate reader (Tecan).
The assay was carried out as described above with increasing concentrations of test compounds. Dose-response experiments were done at least 3 times independently, each in technical triplicates.
Calculation of Z prime (Z’) for HTS assay performance was done according to Zhang et al.. Plates were considered for further analyses if Z’ > 0.6 [26].

bovine α-chymotrypsin = target: T2, bovine α-chymotrypsin (Bos taurus, UniProt P00766); assay: Serine protease selectivity assay with bovine α-chymotrypsin (Suc-LY-AMC); format: biochemical; details: 200 μM compound concentration
T2 construct: purchased Sigma-Aldrich C4129
Protocol: Compound selectivity was assessed using bovine α-chymotrypsin (#C4129, Sigma-Aldrich, St. Louis, MO, USA) at 200 µM. The assay was carried out as described above, except that 1 ng/μL of α-chymotrypsin and 100 μM of Suc-LY-AMC substrate were dissolved in a buffer containing 150 mM NaCl, 10 mM CaCl2, 50 mM Tris-HCl, and 0.05% Brij® 35.

in vitro = format: cell-based; details: human, 48 h incubation, 1:3 dilutions starting from 200 μM
Protocol: (§1) Potential cell toxicity of the tested compounds was evaluated by ATP quantification using the CellTiter-Glo® luminescent cell viability assay (Promega, Madison, WI, USA). […] After incubation, 20 µL of CellTiter-Glo® reagent were added per well and incubated at room temperature in the dark for another 30 min. Luminescence was quantified by an EnVision multi-plate reader (PerkinElmer, Rodgau, Germany).

A549 cells = assay: in vitro; format: cell-based
Protocol: as §1

HTC-116 cells = assay: in vitro; format: cell-based
Protocol: as §1

MCF-7 cells = assay: in vitro; format: cell-based
Protocol: as §1

E. coli ClpP [2] = target: T1, E. coli ClpP; assay: Surface plasmon resonance binding to immobilized ClpP; details: 80 µM, injected over 7 min, 30 min dissociation
Protocol: E. coli ClpP (80 μg/mL) protein was immobilized, using amine coupling (SPR-AS-HCA-03, Bruker Daltonics Inc., Billerica, MA, USA), onto the surface of the sensor chip of a SIERRA SPR-16 instrument (Bruker Daltonics GmbH, Bremen, Germany). ClpP protein was dissolved in acetate at pH 4. The running buffer contained 150 mM NaCl, 10 mM Hepes, 3 mM EDTA, and 0.05% (v/v) Tween-20. The flow rate for protein immobilization was 10 μL/min. Binding experiments were carried out using running buffer with the addition of 0.8% (v/v) of DMSO and 80 µM test substance (flow rate of 20 μL/min for 7 min and up to 30 min of dissociation time). […] SPR data were analyzed using the Analyzer 3 software (Bruker Daltonics GmbH), which includes algorithms for subtracting reference signals and accounting for non-specific interactions between the solvent and the sensor chip surface.

[3] = tested on: E. coli BW25-113 (wild type); assay: Antibacterial growth inhibition assay in MHB, wild type; format: cell-based; details: 24 h; for inhibition at 100 µM: Escherichia coli, read-out: Growth Inhibition (%)
Protocol: (§2) The potential of hit compounds to interfere with bacterial growth was evaluated in E. coli BW25-113 (wild type) and tolC-deficient strain E. coli JW5503 [34] (obtained from the NBRP-E. coli collection at the National Institute of Genetics, Mishima, Japan). The effect of the compounds on wild-type strain E. coli BW25-113 and the isogenic clpP-deficient E. coli JW0427-1 [34] (coli genetic stock center, New Haven, CT, USA) were measured in the presence of the efflux pump inhibitor Phe-Arg β-naphthylamide dihydrochloride (#P4157, Sigma-Aldrich, USA) at 25 μM. Single colonies of the bacterial strains from Mueller Hinton Agar culture were used to inoculate 5 mL of saline solution. The suspension was transferred into fresh, sterile Mueller Hinton broth (MHB) medium, resulting in a final concentration of 10^6 CFU/mL. Growth assays were carried out in 96-well, flat-bottom, sterile clear plates (#167008, Nunc, VWR, Radnor, PA, USA) and compounds were tested at 50 and 100 μM concentration (2% DMSO). Absorbance at 600 nm was measured using the Multiskan GO or Varioskan LUX plate reader (Thermo Fisher Scientific, Vantaa, Finland) for 24 h at hourly intervals. Between measurements, plates were incubated in a shaking incubator (500 rpm) at 37 °C.

[4] = tested on: E. coli BW25-113 (wild type); assay: Growth delay under nitric oxide stress (DPTA NONOate) in M9 medium, wild type; format: cell-based; details: WT E. coli, M9 minimal medium
Protocol: (§3) Assessment of E. coli growth delay in presence of nitric oxide stress was carried out following our recently published protocol, which is an adaptation of the method reported by Robinson and Brynildsen to a 96-well plate format. Fresh MHB medium was inoculated with isolated colonies of E. coli BW25-113 or E. coli JW0427-1, grown on Luria Agar, and left overnight in a shaking incubator (250 rpm) at 37 °C. On the following day, the overnight culture was used to inoculate fresh M9 medium (supplemented with 10 mM glucose) 1:100, and was grown until OD600 ~0.3. Afterwards, the culture was transferred into 96-well, flat-bottom, sterile clear plates (#167008, Nunc, VWR). Bacterial OD600 was adjusted to 0.1 with M9 medium (supplemented with 10 mM glucose). Test compounds were transferred into the 96-well plates, followed by addition of the bacterial culture. Nitric oxide stress was induced by addition of 2 mM DPTA NONOate ((Z)-1-[N-(3-aminopropyl)-N-(3-ammoniopropyl)amino]diazen-1-ium-1,2-diolate, Cayman Chemical, Ann Arbor, MI, USA), dissolved in NaOH (final concentration 0.14 mM). Absorbance measurements (600 nm) were done with a Multiskan GO or Varioskan LUX plate reader (Thermo Fisher Scientific, Finland) at hourly intervals for 24 h. Between measurements, plates were incubated in a shaking incubator (500 rpm) at 37 °C.

E. coli JW0427 (ΔclpP) [5] = assay: Growth delay under nitric oxide stress (DPTA NONOate) in M9 medium, clpP-deficient strain; format: cell-based; details: clpP-deficient E. coli, DPTA NONOate, compared with cells without compound
Protocol: as §3

E. coli JW0427 (ΔclpP) [6] = assay: Antibacterial growth inhibition assay in MHB, clpP-deficient strain; format: cell-based; details: Escherichia coli, 24 h, read-out: Growth Inhibition (%)
Protocol: as §2

E. coli JW5503 (ΔtolC) = assay: Antibacterial growth inhibition assay in MHB, efflux pump-defective strain; format: cell-based; details: Escherichia coli, 24 h, read-out: Growth Inhibition (%)
Protocol: as §2

[7] = read-out: E. coli ClpP inhibition [%] in the primary screen, primary screen, 200 µM
[8] = read-out: Inhibition (%) at 200 μM E. coli ClpP, 200 μM compound concentration
[9] = A549 cells, read-out: Cytotoxicity A549 IC50
[10] = HTC-116 cells, read-out: Cytotoxicity HTC-116 IC50
[11] = MCF-7 cells, read-out: Cytotoxicity MCF-7 IC50
[12] = E. coli WT, without PAβN, 100 μM, 37 °C, MHB
[13] = both tested concentrations (50 and 100 μM)

T1 sequence (P0A6G7 15-207): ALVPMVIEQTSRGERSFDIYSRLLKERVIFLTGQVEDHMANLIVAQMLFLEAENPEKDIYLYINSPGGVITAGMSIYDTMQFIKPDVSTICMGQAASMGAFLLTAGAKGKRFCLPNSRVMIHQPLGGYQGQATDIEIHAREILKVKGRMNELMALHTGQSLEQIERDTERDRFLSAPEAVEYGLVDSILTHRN

| Compound | pIC50 (E. coli ClpP [1]) | E. coli ClpP inhibition [%] in the primary screen (E. coli ClpP [1]) | inhibition at 200 µM (E. coli ClpP [1]; [7]) | inhibition at 200 µM (E. coli ClpP [1]; [8]) | Inhibition (%) at 200 μM α-Chymotrypsin (bovine α-chymotrypsin) | inhibition at 200 µM (bovine α-chymotrypsin) | IC50 at 48 h (in vitro; [9]) | IC50 at 48 h (in vitro; [10]) | IC50 at 48 h (in vitro; [11]) | Cytotoxicity A549 Ratio (IC50 cytotoxicity/IC50 ClpP) (A549 cells; A549) | Cytotoxicity HTC-116 Ratio (IC50 cytotoxicity/IC50 ClpP) (HTC-116 cells; HTC-116) | Cytotoxicity MCF-7 Ratio (IC50 cytotoxicity/IC50 ClpP) (MCF-7 cells; MCF-7) | Covalent / irreversible binding to ClpP by SPR (E. coli ClpP [2]) | Bacterial growth in absence of NO• stress [4, 13] | Growth delay in presence of nitric oxide stress (E. coli JW0427 (ΔclpP) [5]) | SPR signal (resonance units, RU) (E. coli ClpP [2]) | inhibition at 100 µM (E. coli JW0427 (ΔclpP) [6]) | other results |
| --- | --- | --- | --- | --- | --- | --- | --- | --- | --- | --- | --- | --- | --- | --- | --- | --- | --- | --- |
| O=c1oc(Cl)c(Cl)c2ccccc12 [3,4-DIC, 3,4-dichloroisocoumarin] | 5.31 | > 90% | 98.9% | 98.9% | completely inhibited | 101% | 44.7 µM | 45.1 µM | 9.06 µM | 9.12 | 9.2 | 1.85 | covalent binding | small growth delay | did not show any significant effect | – | – | Growth Inhibition (%) [3, 12]: did not show any intrinsic antimicrobial activities |
| CC(C)C[C@H](NC(=O)[C@H](Cc1ccccc1)NC(=O)c1cnccn1)B(O)O [Bortezomib, bortezomib] | 7.40 | > 90% | 100% | 100% | completely inhibited | 97.8% | – | – | – | – | – | – | covalent binding | did not show any effect | – | low change of absolute resonance unit | 100% | Cytotoxicity A549 Ratio (IC50 cytotoxicity/IC50 ClpP) (A549 cells): 0.005; Cytotoxicity HTC-116 Ratio (IC50 cytotoxicity/IC50 ClpP) (HTC-116 cells): 0.005; Cytotoxicity MCF-7 Ratio (IC50 cytotoxicity/IC50 ClpP) (MCF-7 cells): 1; inhibition at 100 µM [3]: 55% |
| CO[C@@]1(NC(=O)CSCC#N)C(=O)N2C(C(=O)O)=C(CSc3nnnn3C)CS[C@@H]21 [Cefmetazole, cefmetazole] | 5.47 | > 90% | 94.5% | 94.5% | no inhibition | 0% | 250 µM | 5430 µM | 74.1 µM | 73.53 | 1597.06 | – | – | – | – | – | 100% | inhibition at 100 µM [3, 12]: 100%; inhibition at 100 µM (E. coli JW5503 (ΔtolC)): 100% |
| N.N.[Cl-].[Cl][Pt+].c1ccncc1 [cDPCP] | – | 91.16% and > 90% | – | – | 84.7% | – | – | – | – | 5.33 | – | 0.13 | – | – | did not show any significant effect | high RU values | – | Inhibition (%) at 200 μM E. coli ClpP (E. coli ClpP [1]; 200 μM compound concentration): 91.2%; pIC50 (E. coli ClpP [1]; dose-response, 1:3 dilution starting from 200 μM, substrate Suc-LY-AMC, read-out: E. coli ClpP IC50): 4.61; pIC50 (A549 cells; 48 h incubation, 1:3 dilutions starting from 200 μM, read-out: Cytotoxicity A549 IC50): 3.88; pIC50 (HTC-116 cells; 48 h incubation, 1:3 dilutions starting from 200 μM, read-out: Cytotoxicity HTC-116 IC50): 3.55; pIC50 (MCF-7 cells; 48 h incubation, 1:3 dilutions starting from 200 μM, read-out: Cytotoxicity MCF-7 IC50): 5.49; Bacterial growth in absence of NO• stress ([4]; 100 μM compound): clearly influenced |
